Experiments:
C2C12 Mouse Myoblasts = assay: Glucose utilization (glucose remaining in medium); type: cell-based; conditions: metformin 1 mM, 18-22 hours
Procedure: The effect of the peptides on glucose metabolism can be assessed using an assay of glucose utilization in cultured cells such as mouse myoblasts. Peptides were initially prepared as 10 mM stock in DMSO and used at a final concentration of 10 μM (0.1% DMSO). C2C12 mouse myoblast cell line was purchased from American Type Culture Collection (Manassas, VA). C2C12 cultures were maintained at 37° C. in a humidified atmosphere of 5% CO2/95% air with medium changes every second day. C2C12 cells were grown in DMEM (1 g/L glucose) supplemented with 10% FBS with 100 IU/ml penicillin and 100 μg/ml streptomycin. C2C12 cells were seeded at 7,000 cells per well on 96-well plates and cultured to confluence. Once the cell reached confluence the media was changed to DMEM (1 g/L glucose) supplemented with 2% HS with 100 IU/ml penicillin and 100 μg/ml streptomycin and maintained at 37° C. in a humidified atmosphere of 5% CO2/95% air. 5 days post-induction of differentiation fresh DMEM (1 g/L glucose) supplemented with 2% HS with 100 IU/ml penicillin and 100 μg/ml streptomycin was added to cultures. Cells were maintained at 37° C. in a humidified atmosphere of 5% CO2 and 95% air for 5 hours. After 5 hours test peptides at 10 μM or controls (0.5 mM or 1 mM metformin in 1% DMSO) prepared in fresh differentiation medium were added to cells and the cultures were maintained at 37° C. in a humidified atmosphere of 5% CO2/95% air for 18-22 hours. At the end of the incubation culture media was removed from the cells and the remaining glucose concentration was measured using a Glucose Assay kit (Abcam) according to the manufacturer's instructions, using a Cytation 3 plate reader at 570 nm (BioTek, Winooski, VT). Glucose concentrations in the medium were calculated relative to 0.1% DMSO treated control cells. The relative standard deviation of the result for the 0.1% DMSO treated control was <20%. Metformin was used as a positive control for reduction of glucose levels (increased glucose utilization glucose levels for treatment with metformin (1 mM) treatment were <20% of the 0.1% DMSO treated control value. The results are reported in Table 11.

[1] = PrestoBlue cell viability assay; type: cell-based; conditions: human; read-out: Cell viability, % of background corrected DMSO control value
Procedure: The effect of the peptides on cell viability can be assessed in cultured cells using suitable assay of viability such as the PrestoBlue® assay (Thermo Fisher Scientific, Waltham, MA). Peptides were initially prepared as 10 mM stock in DMSO and tested at a final concentration of 10 μM (0.1% DMSO). […] PrestoBlue Assay Reagent was purchased from Thermo Fisher Scientific. A172 human brain glioblastoma cell line was purchased from American Type Culture Collection (Manassas, VA). A172 cells were grown in DMEM supplemented with 10% FBS with 100 IU/ml penicillin and 100 μg/ml streptomycin. Cultures were maintained at 37° C. in a humidified atmosphere of 5% CO2/95% air. A172 cells were seeded at 8,000 cells per well on 96-well plates. […] Cell viability was determined using a PrestoBlue Assay reagent […] according to the manufacturer's instructions. Absorption for each sample well on the plate was measured using a Cytation 3 plate reader at 560 nm and 590 nm (BioTek, Winooski, VT). Activity was calculated relative to 0.1% DMSO untreated control. Treatment with 0.1% DMSO alone was used as the cell viability activity control. The relative standard deviation of the DMSO control was <5%.

[2] = system: SH-SY5Y Neuroblastoma Cells; assay: ATP levels (CellTiter-Glo); type: cell-based, human; conditions: staurosporine 1 μM, 18-20 hours
Procedure: The effect of the peptides on cellular metabolism can be assessed using an assay of ATP levels in cultured cells such as human neuroblastoma cells. Peptides were initially prepared as 10 mM stock in DMSO and used at a final concentration of 10 μM (0.1% DMSO). […] CellTiter-Glo® Assay kit was purchased from Promega. SH-SY5Y human bone marrow neuroblastoma cell line was purchased from American Type Culture Collection (Manassas, VA) and licensed from Memorial Sloan-Kettering Cancer Center (New York, NY). SH-SY5Y cells were grown in DMEM/F12 medium supplemented with 10% FBS with 100 IU/ml penicillin and 100 μg/ml streptomycin. Cultures were maintained at 37° C. in a humidified atmosphere of 5% CO2/95% air. SH-SY5Y cells were seeded at 30,000 cells per well on 96-well plates. […] ATP levels were determined using a CellTiter-Glo Assay kit (Promega) according to the manufacturer's instructions. Luminescence for each sample well on the plate was measured using a Cytation 3 plate reader (BioTek, Winooski, VT). Activity was calculated relative to 0.1% DMSO treated control. The relative standard deviation of the result for the 0.1% DMSO treated control was <5%.

3T3-L1 Mouse Adipocytes = assay: Free fatty acid levels in cultured mouse adipocytes stimulated with isoproterenol; type: cell-based; conditions: insulin 100 nM, 3 hours with 1 nM isoproterenol
Procedure: The effect of the peptides on fatty acid metabolism can be assessed using an assay of free fatty acid levels in cultured cells such as mouse adipocytes. Peptides were initially prepared as 10 mM stock in DMSO and used at a final concentration of 10 μM (0.1% DMSO). […] Mouse 3T3-L1 cells purchased from ZenBio were seeded at 3,000 cells per well in 96-well plates in Pre-adipocyte Medium (Zen-Bio) and grown to confluence at 37° C. in a humidified atmosphere of 5% CO2/95% air. Two days after confluence, cells were placed in Adipocyte Differentiation Medium (Zen-Bio) and cultured for three additional days at 37° C. in a humidified atmosphere of 5% CO2/95% air. The culture media was then replaced with Adipocyte Maintenance Medium (Zen-Bio) and the cells maintained for an additional 9-12 days at 37° C. in a humidified atmosphere of 5% CO2/95% air with partial medium replacement every other day. Following 12-15 days of differentiation, test peptides were added at a final concentration of 10 μM in 0.1% DMSO and incubated for 20-22 hours in Adipocyte Maintenance Medium at 37° C. in a humidified atmosphere of 5% CO2/95% air. After 20-22 hours, 1 nM isoproterenol was added to all wells except untreated controls and test peptides were replenished. Insulin at 100 nM was added to control wells. Cells were incubated for 3 hours in Assay Buffer (Zen-Bio) at 37° C. in a humidified atmosphere of 5% CO2/95% air. Free fatty acid concentrations in the media were determined using a Free Fatty Acid Assay kit (Zen-Bio) according to the manufacturer's instructions using a Cytation 3 plate reader at 540 nm (BioTek, Winooski, VT). Absorbance values were corrected for untreated background and expressed relative to isoproterenol treated cells. Treatment with isoproterenol (1 nM) alone was used as the free fatty acid level stimulatory control. The relative standard deviation of the isoproterenol control was <10%. […] Free fatty acid levels for insulin (100 nM) treatment were <5% of the isoproterenol control value.

Question: Which “Glucose levels, % of the 0.1% DMSO treated control value” (C2C12 Mouse Myoblasts) does the source give for `CN(C)C(=N)N=C(N)N` [Metformin, reference compound] here?
Answer: < 20%

Question: Which viability at 1 µM [1] does the source give for `CN[C@@H]1C[C@H]2O[C@@](C)([C@@H]1OC)n1c3ccccc3c3c4c(c5c6ccccc6n2c5c31)C(=O)NC4` [Staurosporine, reference compound] here?
Answer: < 75%

Question: What about the “ATP levels, % of the 0.1% DMSO treated control value” [2] of the same molecule?
Answer: < 5%

Question: For Insulin [reference compound], which “Free fatty acid levels, % of the isoproterenol control value” (3T3-L1 Mouse Adipocytes) is on record?
Answer: < 5%

From patent US20240034753A1, “THERAPEUTIC PEPTIDES” (COHBAR, INC., priority 2020, published 2024)
